The numbers were not newly measured in patent US20260273014A1, “Herbal composition for metabolic syndromes and method of treatment thereof” (priority 2019, published 2026), which cites them from elsewhere.

The conditions of this series: pure mangiferin (Acosta et al. 2016).

Structures are written as SMILES.

Take `O=c1c2cc(O)c(O)cc2oc2cc(O)c([C@@H]3O[C@H](CO)[C@@H](O)[C@H](O)[C@H]3O)c(O)c12` [mangiferin]: the solubility entry is “an issue in most biological models”.
